From patent US9458102B2 (priority 2011, dated 2016)
Where two headings read alike, the source gives them in different places.

Legend:
[1] = molecular target: T1, Butyrylcholinesterase purified from human blood serum (Homo sapiens, UniProt P06276); assay: In vitro hydrolysis by serum cholinesterase (butyrylcholinesterase); assay type: in vitro ADME; conditions: 50 μM compound, 0.1M phosphate buffer pH 7.4, 37° C.; mean±SD of triplicate
T1 construct: Butyrylcholinesterase purified from human blood serum; purchased Sigma; host or cells: purified from human blood serum
Description: Compound 1 is rapidly hydrolyzed by butyrylcholinesterase in the bloodstream. Butyrylcholinesterase purified from human blood serum was used to test the resistance of the disclosed compounds to hydrolysis.
(§1) All enzymatic assays were performed with 50 μM compound in 0.1M phosphate buffer, pH 7.4, at 37° C. with stirring, unless otherwise noted. Butyrylcholinesterase stock solutions from human serum (Sigma, St. Louis, Mo.) were prepared at 100 U/mL in 0.1 M phosphate buffer, pH 7.4, and stored at −20° C. until use. Hydrolysis was monitored on an 8452A diode array spectrophotometer (Hewlett-Packard). Product peak wavelength absorption was immediately monitored upon addition of compound. Absorbances for complete hydrolysis were determined when there were no further detectable changes. […] All hydrolysis assays were performed in triplicate, and final rate constants are expressed as the mean±SD of the three individually determined rate constants. In some experiments with compound 1, samples were taken at the beginning and end of the assay to verify the hydrolysis product and the completion of the reaction by HPLC. These samples were compared to compounds 1 and 3 on a C18 column eluted with 0.1% TFA in water/acetonitrile. Activity of chymotrypsin (bovine, Worthington Biochemical Co., 190 μg/mL) was verified with 90 μM 4-nitrophenyl acetate in 0.1 M HEPES solution, pH 6.5, at 37° C. with stirring. Hydrolysis product was monitored at 404 nm for 10 min. Activity of proteinase K (from Engyodontium album, Sigma, 165 μg/mL) was verified with 16.5 mg/mL bovine serum albumin in 0.1 M phosphate buffer, pH 7.4, at 37° C. Samples were taken at time point increments up to 2 hours when the reaction reached completion. Samples were analyzed with 12% SDS-PAGE, stained with 0.1% Coomassie Blue.

[2] = molecular target: T2, chymotrypsin (Bos taurus, UniProt P00766); assay: In vitro hydrolysis by chymotrypsin; assay type: in vitro ADME
T2 construct: purchased Worthington Biochemical Co
Description: as §1, with “In some experiments with compound 1, samples were taken at the beginning and end of the assay to verify the hydrolysis product and the completion of the reaction by HPLC. These samples were compared to compounds 1 and 3 on a C18 column eluted with 0.1% TFA in water/acetonitrile.” left out

[3] = molecular target: T3, proteinase K (Parengyodontium album, UniProt P06873); assay: In vitro hydrolysis by proteinase K; assay type: in vitro ADME, Engyodontium album
T3 construct: purchased Sigma
Description: Hydrolysis products of 4-nitrophenyl acetate and BSA were detected as positive controls.
as §1

[4] = molecular target: heteromeric rod CNG channels consisting of CNGA1 and CNGB1 subunits (Bos taurus, UniProt Q00194+Q28181); assay: biochemical; assay type: cell-based; conditions: 2 mM cGMP; for Kd: Table 1, mean±SD, not corrected for ion accumulation
Description: Currents were elicited by a voltage step protocol from 0 to −50 to +50 mV (See FIG. 1) in the presence of 2 mM cGMP or 2 mM cGMP and compound (5 μM). Time scale is shown in the lower left-hand corner of the panel and FIG. 1, and the zero current level is indicated by the dotted line.
The solid line indicates the fit of the equation for block at a single binding site.
Time scale is shown in the lower left-hand corner of the panel and FIG. 1, and the zero current level is indicated by the dotted line. […] Solid line indicates the fit of the equation for block at a single binding site.
The effectiveness of retinal rod CNG channel current block by the disclosed compounds was tested in Xenopus oocyte preparations. Excised, inside-out patches pulled from oocytes expressed heteromeric rod CNG channels consisting of CNGA1 and CNGB1 subunits. […] CNG channel currents were elicited by a voltage step protocol to −50 and +50 mV (FIG. 1). The apparent KD value at each membrane potential was estimated first by determining I+B and I−B at steady state, where I+B is the current in the presence of blocker and I−B is current in the absence of blocker, for different blocker concentrations ([B]).
Ovaries were surgically removed from adult Xenopus laevis females (Xenopus Express; Brooksville, Fla.) anesthetized with ice-cold 0.1% tricaine and 0.1% NaHCO3 solution. Oocytes were chemically released from ovarian follicles in Ca^2+-free Barth's solution (88 mM NaCl, 1 mM KCl, 2.4 mM NaHCO3, 0.82 mM MgSO4, 7.5 mM Tris, 2.5 mM sodium pyruvate, 100 U/mL penicillin, and 100 μg/mL streptomycin, pH 7.4) containing 0.1 U/mL Liberase Blendzymes (Roche, Indianapolis, Ind.). Stages IV and V oocytes were visually sorted and stored in ND-96 (96 mM NaCl, 2 mM KCl, 1.8 mM CaCl2, 1 mM MgCl2, 5 mM HEPES, 2.5 mM sodium pyruvate, 100 U/mL penicillin, and 100 μg/mL streptomycin, pH 7.4) at 16° C. Oocytes were co-injected the following day with 33 ng of CNGA1 and 67 ng of CNGB1 cRNA […] synthesized from linearized pGEM-HE expression vectors containing the channel subunit cDNA sequence (Strassmaier T & Karpen J, J Med Chem 50, 4186-4194, (2007), incorporated by reference herein) using T7 mMESSAGE mMACHINE® (Ambion, Austin, Tex.). Injected oocytes were incubated at 18° C. the first day and 16° C. for the remaining days.
Recordings from inside-out excised patches were made 3-7 days after oocyte injection on an Axopatch 1D® amplifier (Axon Instruments, Foster City, Calif.). Briefly, oocyte vitelline membranes were removed in solution containing 200 mM K aspartate, 20 mM KCl, 1 mM MgCl2, 10 mM EGTA, 10 mM HEPES, pH 7.4. Oocytes were placed in a recording chamber in a solution containing 130 mM NaCl, 2 mM HEPES, 0.02 mM EDTA, 1 mM EGTA, pH 7.6, and borosilicate glass electrodes (1-3 MΩ) were filled with identical solution. Macroscopic currents were filtered at 1 kHz and sampled at 2 kHz using pCLAMP 8.0® software (Axon Instruments). Channels were either fully activated with 2 mM or partially activated with 50 and 100 μM cGMP. […] Glass syringes and Teflon tubing were used to minimize the binding of compounds to surfaces; concentrations passing through the perfusion system were verified by absorbance.

Chain of heteromeric rod CNG channels consisting of CNGA1 and CNGB1 subunits (Q00194 whole entry): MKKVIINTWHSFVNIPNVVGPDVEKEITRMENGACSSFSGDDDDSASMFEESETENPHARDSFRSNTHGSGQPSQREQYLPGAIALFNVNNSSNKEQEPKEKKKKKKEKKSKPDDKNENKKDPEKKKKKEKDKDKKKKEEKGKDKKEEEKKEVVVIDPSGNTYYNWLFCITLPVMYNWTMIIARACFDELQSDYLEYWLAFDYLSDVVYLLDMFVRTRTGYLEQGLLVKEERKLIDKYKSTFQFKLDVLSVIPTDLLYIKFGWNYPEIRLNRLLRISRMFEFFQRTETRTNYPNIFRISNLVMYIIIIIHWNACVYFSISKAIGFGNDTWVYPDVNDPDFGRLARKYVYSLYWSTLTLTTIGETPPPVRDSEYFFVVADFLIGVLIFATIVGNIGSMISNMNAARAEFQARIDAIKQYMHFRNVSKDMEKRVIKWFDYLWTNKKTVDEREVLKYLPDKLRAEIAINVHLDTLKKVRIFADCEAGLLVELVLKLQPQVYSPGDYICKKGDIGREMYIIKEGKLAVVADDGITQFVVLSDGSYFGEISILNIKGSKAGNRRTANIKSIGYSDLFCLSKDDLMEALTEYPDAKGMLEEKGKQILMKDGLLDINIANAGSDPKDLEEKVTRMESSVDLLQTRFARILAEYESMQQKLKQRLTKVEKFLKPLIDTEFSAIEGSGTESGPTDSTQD
Chain of heteromeric rod CNG channels consisting of CNGA1 and CNGB1 subunits (Q28181 whole entry): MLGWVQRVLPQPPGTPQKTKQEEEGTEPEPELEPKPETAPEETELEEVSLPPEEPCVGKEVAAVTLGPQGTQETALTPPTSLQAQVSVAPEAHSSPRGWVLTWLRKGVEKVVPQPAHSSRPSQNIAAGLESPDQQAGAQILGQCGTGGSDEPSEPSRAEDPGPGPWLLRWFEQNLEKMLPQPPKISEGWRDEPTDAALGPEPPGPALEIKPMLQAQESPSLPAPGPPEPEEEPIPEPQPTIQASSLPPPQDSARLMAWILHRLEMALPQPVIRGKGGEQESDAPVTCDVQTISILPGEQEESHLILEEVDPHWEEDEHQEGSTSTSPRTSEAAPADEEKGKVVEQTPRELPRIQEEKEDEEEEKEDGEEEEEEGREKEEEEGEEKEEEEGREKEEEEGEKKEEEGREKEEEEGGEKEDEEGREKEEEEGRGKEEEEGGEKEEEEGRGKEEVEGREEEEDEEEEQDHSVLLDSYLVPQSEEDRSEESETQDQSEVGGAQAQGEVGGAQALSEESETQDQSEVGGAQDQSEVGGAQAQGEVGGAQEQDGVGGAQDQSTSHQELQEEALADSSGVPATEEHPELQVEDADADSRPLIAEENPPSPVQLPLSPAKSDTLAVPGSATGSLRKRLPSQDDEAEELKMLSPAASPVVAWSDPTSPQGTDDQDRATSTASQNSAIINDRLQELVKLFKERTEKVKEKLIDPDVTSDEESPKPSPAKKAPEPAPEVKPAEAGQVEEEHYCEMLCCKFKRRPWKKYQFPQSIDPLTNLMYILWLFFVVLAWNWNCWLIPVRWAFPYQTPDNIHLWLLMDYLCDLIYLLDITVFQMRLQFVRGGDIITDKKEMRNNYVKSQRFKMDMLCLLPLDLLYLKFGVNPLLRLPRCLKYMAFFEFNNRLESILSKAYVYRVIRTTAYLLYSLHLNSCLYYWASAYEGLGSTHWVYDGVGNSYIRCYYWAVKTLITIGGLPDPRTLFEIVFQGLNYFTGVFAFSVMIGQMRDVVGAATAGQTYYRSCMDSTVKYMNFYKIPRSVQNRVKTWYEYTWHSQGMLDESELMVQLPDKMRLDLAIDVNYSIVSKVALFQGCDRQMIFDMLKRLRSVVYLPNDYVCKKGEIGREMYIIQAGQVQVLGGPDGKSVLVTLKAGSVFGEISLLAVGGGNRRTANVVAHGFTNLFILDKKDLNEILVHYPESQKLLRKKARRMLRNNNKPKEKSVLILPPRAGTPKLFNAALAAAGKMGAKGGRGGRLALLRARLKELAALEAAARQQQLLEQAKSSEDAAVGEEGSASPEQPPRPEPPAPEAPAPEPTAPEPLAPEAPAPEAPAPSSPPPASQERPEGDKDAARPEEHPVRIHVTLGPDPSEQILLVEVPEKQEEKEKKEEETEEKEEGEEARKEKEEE
T1 sequence (P06276 29-602): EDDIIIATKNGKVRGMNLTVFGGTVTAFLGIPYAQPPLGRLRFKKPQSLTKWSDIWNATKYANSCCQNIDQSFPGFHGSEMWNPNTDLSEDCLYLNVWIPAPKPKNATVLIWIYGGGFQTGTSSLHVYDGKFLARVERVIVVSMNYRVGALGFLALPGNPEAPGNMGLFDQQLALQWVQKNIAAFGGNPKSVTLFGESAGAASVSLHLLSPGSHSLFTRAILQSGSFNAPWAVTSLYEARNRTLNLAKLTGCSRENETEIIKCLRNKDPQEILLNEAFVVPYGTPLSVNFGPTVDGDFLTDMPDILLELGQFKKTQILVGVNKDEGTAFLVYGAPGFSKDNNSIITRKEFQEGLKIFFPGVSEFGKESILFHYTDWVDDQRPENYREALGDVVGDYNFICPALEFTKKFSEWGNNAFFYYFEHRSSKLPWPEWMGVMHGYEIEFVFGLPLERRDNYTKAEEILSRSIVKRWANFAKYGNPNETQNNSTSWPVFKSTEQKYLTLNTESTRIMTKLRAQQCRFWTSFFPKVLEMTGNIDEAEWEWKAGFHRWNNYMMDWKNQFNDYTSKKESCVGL
T3 sequence (P06873 106-384): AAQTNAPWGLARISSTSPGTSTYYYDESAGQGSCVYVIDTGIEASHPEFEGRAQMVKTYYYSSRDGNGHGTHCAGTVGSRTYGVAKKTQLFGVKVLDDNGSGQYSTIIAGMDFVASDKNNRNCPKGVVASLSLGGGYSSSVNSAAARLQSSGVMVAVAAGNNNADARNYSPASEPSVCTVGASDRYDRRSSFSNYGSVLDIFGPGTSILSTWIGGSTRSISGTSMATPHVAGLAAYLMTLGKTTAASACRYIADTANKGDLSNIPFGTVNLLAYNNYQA

SMILES | Hydrolysis rate [1] [nmol/min/mg] | hydrolysis products with chymotrypsin [2] | hydrolysis products with proteinase K [3] | Kd ([4]; +50 mV, read-out: KD(+50)) [µM] | Kd ([4]; −50 mV, read-out: KD(−50)) [µM] | voltage dependence of block ([4]; +50 vs −50 mV)
CCCCNc1ccc(C(=O)NCCN(C)C)cc1 [Compound 6, 4-(Butylamino)-N-(2-(dimethylamino)ethyl)benzamide] | 8.4 ± 3.5 | not able to generate any detectable hydrolysis products | not able to generate any detectable hydrolysis products | 4.4 ± 2 | 28.6 ± 13.1 | –
CCCCCCCCNc1ccc(C(=O)NCCN(C)C)cc1 [Compound 7, 4-(Octylamino)-N-(2-(dimethylamino)ethyl)benzamide] | 1.2 ± 0.5 | not able to generate any detectable hydrolysis products | not able to generate any detectable hydrolysis products | – | – | appreciably less voltage dependent than compound 1, 6, and 8
